Results from patent US11130780B2, “Inhibitors of growth factor activation enzymes” (Washington University, priority 2015, dated 2021).
Values joined by “and” are separate entries in the source; they are usually repeats but may differ in a detail not shown here. Equal entries are not always repeated. Where two headings read alike, the source gives them in different places. Each block holds one molecule with its values, some of them ahead of it.

Experiments:
Assay type in all cases: biochemical
matriptase = biological target: T1, matriptase (Homo sapiens, UniProt Q9Y5Y6); assay: Fluorescent kinetic enzyme inhibitor assay of matriptase; settings: Fluorogenic Assay
T1 construct: Charles Craik, UCSF (obtained from another laboratory)
T1 sequence (Q9Y5Y6 615-855 limits assumed): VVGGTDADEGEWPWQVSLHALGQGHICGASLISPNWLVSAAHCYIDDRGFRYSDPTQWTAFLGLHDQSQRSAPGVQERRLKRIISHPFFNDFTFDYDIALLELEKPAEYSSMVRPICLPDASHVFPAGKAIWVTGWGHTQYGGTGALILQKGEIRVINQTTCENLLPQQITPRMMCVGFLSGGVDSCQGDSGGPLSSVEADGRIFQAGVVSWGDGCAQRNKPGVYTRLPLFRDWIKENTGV
Description: (§1) Inhibitors (11-pt serial dilutions, 0-20 μM final concentration in reaction) were serially diluted in DMSO (2% DMSO final concentration) and then mixed with either recombinant serine protease domain of HGFA [Z. Han, P. K. Harris, D. E. Jones, R. Chugani, T. Kim, M. Agarwal, W. Shen, S. A. Wildman, J. W. Janetka, Acs Med Chem Lett 2014, 5, 1219-1224], matriptase (Charles Craik, UCSF) or hepsin* (#4776-SE-010, R&D Systems, Minneapolis, Minn.) in black 384 well plates (Corning #3575. Corning, N.Y.). […] The final substrate concentrations for all assays were at the Km for the respective enzymes. Changes in fluorescence (excitation at 380 nm and emission at 460 nm) were measured at room temperature over time in a Biotek Synergy 2 plate reader (Winnoski, Vt.). Using GraphPad Prism version 6.04 software program, (GraphPad Software, San Diego, Calif., www.graphpad.com), a four parameter curve fit was used to determine the inhibitor IC50s from a plot of the mean reaction velocity versus the inhibitor concentration. The IC50 values represent the average of three separate experimental determinations.

hepsin = biological target: T2, hepsin (Homo sapiens, UniProt P05981); assay: Fluorescent kinetic enzyme inhibitor assay of hepsin; settings: Fluorogenic Assay, read-out: Hepsin Ki
T2 construct: purchased R&D Systems 4776-SE-010
Description: as §1

HGFA = biological target: T3, HGFA (Homo sapiens, UniProt Q04756); assay: Fluorescent kinetic enzyme inhibitor assay of HGFA; settings: read-out: HGFA Ki
T3 construct: His6 tag (N); seven amino acid spacer and seven amino acid TEV cleavage site (N); Honey Bee melittin signal peptide (N); made in house; host or cells: High 5 insect cells (baculovirus; virus raised in Sf9)
T3 sequence (Q04756 373-655): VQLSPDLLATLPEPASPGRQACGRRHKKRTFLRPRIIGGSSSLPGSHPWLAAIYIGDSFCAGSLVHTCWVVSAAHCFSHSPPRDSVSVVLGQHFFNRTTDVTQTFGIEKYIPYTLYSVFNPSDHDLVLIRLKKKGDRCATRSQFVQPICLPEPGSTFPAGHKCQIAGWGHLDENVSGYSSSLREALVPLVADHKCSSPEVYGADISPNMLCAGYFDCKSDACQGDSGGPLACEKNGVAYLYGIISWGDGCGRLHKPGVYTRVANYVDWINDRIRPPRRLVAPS
Excerpt: Using primers identified as SEQ ID NO 1, SEQ ID NO 2, and standard PCR protocols, the nucleotide sequence encoding amino acids 373-655 of HGFA was synthesized. This PCR product was cloned into the SfoI-HindIII sites of a modified pFastBac HT baculovirus expression vector (Addgene, Cambridge, Mass.). This vector contains a six amino His tag followed by a seven amino spacer and a seven amino acid TEV cleavage site placed immediately downstream of the Honey Bee melittin signal peptide. Using a modified Bac to Bac Expression System (Life Technologies, Carlsbad, Calif.), recombinant HGFA bacmids were obtained by transforming DH10Bac Escherichia coli cells. To obtain HGFA containing baculovirus, purified bacmids were transfected into Sf9 insect cells. After 5 days in culture at 27° C., media was harvested from transfected Sf9 cells. This media was used to prepare baculovirus infected insect cells (BIICs). These BIIICs were used to infect High 5 insect cells. Four days post infection, media was harvested and recombinant protein prepared as follows. Media was chilled to 4° C. and spun at 4000×g for 20 minutes (all subsequent steps were performed at 4° C. unless noted). Clarified media was passed first through a Whatman GF/B 1 um (#1821-047, GE Healthcare Life Sciences, Piscataway, N.J.) and then a 0.22 um PES membrane (#99955, TPP Techno Plastic Products AG, Trasadingen, Switzerland) and then concentrated using a Pall Centramate tangential flow system and Centramate T-series Cassette (#OS010T12, Pall Corporation, Port Washington, N.Y.). Concentrated media was then buffer exchanged in two steps, five volumes of 50 mM Na-phosphate, 500 mM NaCl, pH 6.2, followed by five volumes of 50 mM Na-phosphate, 500 mM NaCl, pH 7.5. The concentrated and buffered exchanged insect cell media was again filtered as above and made 25 mM imidazole (#1202, Sigma-Aldrich, St. Louis, Mo.) and was mixed with nickel agarose beads (#H-321-25, Gold Biotechnology, Inc., St. Louis Mo.). After mixing this slurry for 12 hours, nickel agarose beads were allowed to settle by gravity and then loaded into a column. Beads were washed with buffer (25 mM Na-phosphate, 500 mM NaCl, 25 mM imidazole, pH 8) and the bound protein eluted using (25 mM Na-phosphate, 500 mM NaCl, 250 mM imidazole, pH 8). Using a Amicon Ultra-4 Centrifugal filters (#UFC801008, Merck Millipore, Ltd., Tullagreen, Ireland), peak protein fractions were concentrated and run over a Superdex-200 10/300 GL column (GE Healthcare Life Sciences, Piscataway, N.J.) in 10 mM Tris, 200 mM NaCl, 0.2 mM EDTA, pH 8. HGFA containing fractions were pooled, concentrated, made 50% glycerol, and stored at minus 20° C. Protein was quantitated using a modified Lowry protein assay (#500-0006, Bio-Rad Laboratories, Hercules, Calif.).
as §1

thrombin = thrombin (Homo sapiens, UniProt P00734); assay: Chromogenic kinetic enzyme assay of thrombin; settings: for Ki: read-out: Thrombin Ki
Description: Inhibitors (11-pt serial dilutions, 0-20 μM final concentration) were serially diluted in DMSO (2% DMSO final concentration) and then mixed with recombinant thrombin (0.15 nM final concentration) or Factor Xa (0.35 nM final concentration) in TNC buffer (25 mM Tris, 150 mM NaCl, 5 mM CaCl2, 0.01% TRITON X-100, pH 8) using clear 384 well plates. […] Changes in absorbance at 405 nm were measured over time in a Biotek Synergy 2 plate (Winnoski, Vt.). Using GraphPad Prism version 6.04 software program, (GraphPad Software, San Diego, Calif., www.graphpad.com), a four parameter curve fit was used to determine the inhibitor IC50s from a plot of the mean reaction velocity versus the inhibitor concentration. Ki values were calculated from the IC50 values using the Cheng and Prusoff equation (Ki=IC50/(1+[S]/Km).

T2 sequence (P05981 163-417 limits assumed): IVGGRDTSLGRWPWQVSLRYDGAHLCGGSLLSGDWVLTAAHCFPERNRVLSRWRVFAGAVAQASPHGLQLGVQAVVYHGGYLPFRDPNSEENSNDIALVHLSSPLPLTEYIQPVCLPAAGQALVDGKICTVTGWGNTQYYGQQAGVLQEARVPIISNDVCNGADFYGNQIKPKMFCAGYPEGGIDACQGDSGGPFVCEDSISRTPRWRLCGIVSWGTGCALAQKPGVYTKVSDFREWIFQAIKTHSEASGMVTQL
T2 sequence (P05981 45-162 partner limits assumed): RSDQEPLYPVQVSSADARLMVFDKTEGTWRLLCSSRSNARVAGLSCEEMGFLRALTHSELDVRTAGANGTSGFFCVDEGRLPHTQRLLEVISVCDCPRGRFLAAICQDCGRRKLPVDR

Ki (matriptase; Table 9.1): 0.57 µM | Ki (hepsin; Table 9.1): 4.8 µM | Ki (HGFA; Table 9.1, Fluorogenic Assay): 19.9 µM
SMILES: Cc1ccc(S(=O)(=O)N[C@@H](Cc2cccc(C(=N)N)c2)C(=O)N2CCC(c3ccccc3)CC2)cc1 [Compound 25b, (S)-3-(2-(4-Methylphenylsulfonamido)-3-oxo-3-(4-phenylpiperidin-1-yl)propyl)benzimidamide]

Ki (matriptase; Table 9.2): 1.3 µM | Ki (hepsin; Table 9.2): 0.67 µM | Ki (HGFA; Table 9.2, Fluorogenic Assay): > 50 µM
SMILES: Cc1ccc(S(=O)(=O)N[C@@H](Cc2cccc(C(=N)N)c2)C(=O)N2CCCC(C(=O)NCCc3ccccc3)C2)cc1 (stereo partly drawn) [Compound 25c, 1-((S)-3-(3-Carbamimidoylphenyl)-2-(4-methylphenylsulfonamido)propanoyl)-N-phenethylpiperidine-3-carboxamide]

Ki (matriptase; Table 9.1): 14.9 µM | Ki (matriptase; Table 9.1, listed as FMF-1-278-003): 14.9 µM | Ki (hepsin; Table 9.1): 1.3 µM and 1.28 µM | Ki (HGFA; Table 9.1, Fluorogenic Assay): > 50 µM
SMILES: CCCCCCNC(=O)N1CCN(C(=O)[C@H](Cc2cccc(C(=N)N)c2)NS(=O)(=O)c2ccc3ccccc3c2)CC1 [Compound 25d, (S)-4-(3-(3-Carbamimidoylphenyl)-2-(naphthalene-2-sulfonamido)propanoyl)-N-hexylpiperazine-1-carboxamide]

Ki (matriptase; Table 9.1): 1.2 µM | Ki (hepsin; Table 9.1): 3.75 µM | Ki (HGFA; Table 9.1, Fluorogenic Assay): > 50 µM
SMILES: N=C(N)c1cccc(C[C@H](NS(=O)(=O)c2ccc3ccccc3c2)C(=O)N2CCN(C(=O)c3csc4ccccc34)CC2)c1 [Compound 25e, (S)-3-(3-(4-(Benzo[b]thiophene-3-carbonyl)piperazin-1-yl)-2-(naphthalene-2-sulfonamido)-3-oxopropyl)benzimidamide]

Ki (matriptase; Table 9.2): 4.9 µM | Ki (hepsin; Table 9.2): 2.8 µM | Ki (HGFA; Table 9.2, Fluorogenic Assay): > 50 µM
SMILES: N=C(N)c1cccc(C[C@H](NS(=O)(=O)c2ccc3ccccc3c2)C(=O)N2CCC[C@@H](NC(=O)OCc3ccccc3)C2)c1 [Compound 25f, Benzyl (R)-1-((S)-3-(3-carbamimidoylphenyl)-2-(naphthalene-2-sulfonamido)propanoyl)piperidin-3-ylcarbamate]

SMILES: N=C(N)c1cccc(C[C@H](NS(=O)(=O)c2ccc3ccccc3c2)C(=O)N2CCN(c3ccccc3)CC2)c1 [Compound 25g, (S)-3-(2-(Naphthalene-2-sulfonamido)-3-oxo-3-(4-phenylpiperazin-1-yl)propyl)benzimidamide]
Ki (matriptase; Table 9.1): 1.8 µM | Ki (hepsin; Table 9.1): 7 µM | Ki (HGFA): 18.3 µM

SMILES: CC(C)c1cc(C(C)C)c(S(=O)(=O)N[C@@H](Cc2cccc(C(=N)N)c2)C(=O)N2CCN(c3ccccc3)CC2)c(C(C)C)c1 [Compound 27, (S)-3-(3-Oxo-3-(4-phenylpiperazin-1-yl)-2-((2,4,6-triisopropylphenyl)sulfonamido)propyl)benzimidamide]
Ki (matriptase; Table 9.1): 0.76 µM | Ki (hepsin; Table 9.1): 7.4 µM | Ki (HGFA): 22.2 µM

Ki (thrombin; Table 6.2, headed Fluorogenic Assay): 1.62 µM
SMILES: CC(=O)N[C@@H](CCCCN)C(=O)N[C@@H](CCCNC(=N)N)C(=O)N[C@@H](CC(C)C)C(=O)N[C@@H](CCCNC(=N)N)C(=O)c1nc2ccc(C(=O)NCc3ccc(C(=O)O)cc3)cc2s1 [Compound 7164, Ac-KRLR(SEQ ID NO: 8)-kbt-Benzyl-3-COOH]

Km (thrombin; read-out: Km of chromogenic substrate for thrombin): 14.5 µM
SMILES: N=C(N)NCCC[C@H](NC(=O)[C@@H]1CCCCN1C(=O)[C@H](N)Cc1ccccc1)C(=O)Nc1ccc([N+](=O)[O-])cc1 [Compound S2238, D-Phe-Pip-Arg-pNA, reference compound]

Ki (matriptase; Table 9.3): > 10 µM | Ki (hepsin; Table 9.3): > 10 µM | Ki (HGFA; Table 9.3, Fluorogenic Assay): > 50 µM
SMILES: Cc1nc(-c2cccc(C[C@H](NS(=O)(=O)c3ccc4ccccc4c3)C(=O)N3CCN(C(=O)NCc4ccccc4)CC3)c2)no1 [FMF-1-254-004]

Ki (HGFA; Table 9.1, Fluorogenic Assay): 17.8 µM | Ki (thrombin; Table 9.4): > 2 µM
SMILES: CC(C)c1cc(C(C)C)c(S(=O)(=O)N[C@@H](Cc2cccc(C(=N)N)c2)C(=O)N2CCN(C(=O)C3CCN(C(=N)N)CC3)CC2)c(C(C)C)c1 [JWJ-I-135]
